# Experimental data published in patent EP2362225 (dated 2011).
# “Also recorded” adds a separate entry of the source.
# What was measured:
# [1] = system: 20S proteasomes of T2.27 cells (immunoproteasomes); experiment: T2.27 20S proteasomes (immunoproteasomes) in Hepes buffer; details: human T2 cells transfected with murine LMP2 and LMP7 subunits, 37°C, up to 48 hours
# [2] = system: 20S proteasomes of Lymphoblastoid cell Lines (LcL); experiment: LcL 20S proteasomes in Hepes buffer (Hepes 20 mM, KCI 1 mM, MgCl 0.5 mM, DTT 1 mM, NaN3 1 mM, pH 7.3); details: human, 37°C, up to 48 hours
# [3] = system: T2 20S proteasomes (standard proteasome); experiment: 20S proteasomes purified from T2 cells in Hepes buffer; details: human, 37°C, up to 48 hours
# [4] = system: 20S proteasomes of T2 cells (standard proteasome); experiment: T2 20S proteasomes (standard proteasome) in Hepes buffer; details: human, 37°C, up to 48 hours
# [5] = system: T2.27 20S proteasomes (immunoproteasomes); experiment: 20S proteasomes purified from T2.27 cells in Hepes buffer; details: human T2 cells transfected with murine LMP2 and LMP7, 37°C, up to 48 hours
# LcL 20S proteasomes = experiment: 3 µg LcL 20S proteasomes in 100 µl buffer; gp10040-52 and its heavy analogue digested together; details: human, up to 36 hours
Substance,fragment found [1],fragment found [2],fragment found [3],fragment found [4],fragment found (proteasome),fragment found [5],fragment found (LcL 20S proteasomes)
RTKAWNRQLYPEW,[RTK][QLYPEW]; also recorded: [QLYPEW][RTK],gp10040-42/47-52 [RTK][QLYPEW]; also recorded: gp10047-52/40-42 [QLYPEW][RTK],gp10047-52/40-42 [QLYPEW][RTK],[RTK][QLYPEW]; also recorded: [QLYPEW][RTK],gp10040-42/47-52 [RTK][QLYPEW],gp10040-42/47-52 [RTK][QLYPEW]; also recorded: gp10047-52/40-42 [QLYPEW][RTK],gp10040-042/47-52-α; also recorded: gp10047-52/40-42-α
VSRQLRTKAWNRQLYPEWTEAQR,[VSRQL][VSRQL] (gp10035-39/35-39); also recorded: [QLYPEWTEA][VSRQL] (gp10047-55/35-39),,,[VSRQL][VSRQL] (gp10035-39/35-39); also recorded: [QLYPEWTEA][VSRQL] (gp10047-55/35-39),,,
RTK^+6AWNRQL^+1YPEW,,,,,,,gp10040-42/47-52-δ; also recorded: gp10047-52/40-42-δ
